# Data taken from patent publication US11479529B2, “Compounds with antimicrobial activity” (The Hong Kong Polytechnic University, priority 2018, dated 2022).
# Values joined by “and” are separate entries in the source; they are usually repeats but may differ in a detail not shown here. Identical values can stand only once.
# Assays:
# [1] = Cytotoxicity assay, HaCaT; assay type: cell-based; conditions: HaCaT immortalized human keratinocytes
# Experimental: (§1) Cytotoxicity assay was performed as detailed previously^43 except A549 lung carcinoma and HaCaT immortalized human keratinocytes were used in this study.
# Cytotoxicity assay, A549 = assay type: cell-based, human; conditions: human, A549 lung carcinoma cells
# Experimental: as §1
# [2] = tested on: NusB variants (Y18A, D76A, and D81A); assay: Isothermal titration calorimetry, NusB variants; assay type: binding, B. subtilis
# Experimental: (§2) The interaction between MC4 and NusB was also biophysically quantified. […] Further experiments will be performed to resolve the structure of NusB in complex with MC4 for target validation, as well as structure-based lead optimization.
# (§3) Isothermal calorimetric titration (ITC). ITC experiments were performed as described previously.^41 For compound testing, a 50 mM stock made up in DMSO was diluted to 500 μM in ITC buffer (50 mM KH2PO4, 150 mM NaCl, pH 7.4). All proteins were dialysed into ITC buffer and were supplemented with the same concentration of DMSO (1% v/v) to minimize buffer miss-match. MC4 was then titrated against 50 μM NusB wild type and mutants as described previously^41 using 1% DMSO in ITC buffer as the negative control.
# NusE = target: T1, NusE (Bacillus subtilis, UniProt P21471); assay: Isothermal titration calorimetry, NusE; assay type: binding, B. subtilis
# T1 construct: 3C protease site + GST (C); made in house; host or cells: E. coli BL21 (DE3) pLysS
# A549 lung carcinoma = assay: Cytotoxicity assay, A549; assay type: cell-based, human; conditions: mammalian cell lines (Table 1: A549, HaCaT), compared to 5-fluorouracil
# Experimental: as §1
# [3] = target: T2, B. subtilis NusB wild type protein (Bacillus subtilis, UniProt P54520); assay: Isothermal titration calorimetry, NusB wild type; assay type: binding; conditions: ITC
# T2 construct: 6xHis (N); made in house; host or cells: E. coli BL21 (DE3) pLysS
# Experimental: as §2, §3
# [4] = tested on: S. aureus ATCC 25923 cells; assay: DNA, protein and rRNA quantitation in treated cells; assay type: cell-based, Staphylococcus aureus; conditions: one-quarter MIC, exponential growth, versus control cells
# Experimental: The level of macromolecules in S. aureus ATCC 25923 cells during exponential growth due to MC4 treatment were analyzed.
# DNA, protein and rRNA quantitation. MC4, oxacillin and rifampicin at ¼ MIC level were added to S. aureus strain ATCC 25923 in LB medium at early log phase (OD595=0.2), which was then grown to mid-log phase (OD595==0.5). For DNA and protein quantitation, 1 ml cells were harvested and treated with 10 mg/ml lysozyme+0.5 mg/ml lysostaphin at RT for 1 hr before centrifugation at 13000 g/min for 3 min. The supernatant was discarded and cells lysed with 600 μl Nuclei Lysis Solution (Promega/Genomic DNA Purification Kit) for 5 min, followed by gentle sonication. The amount of DNA was quantified with Qubit dsDNA BR (broad range) and protein quantified with NanoOrange™ Protein Quantitation Kit (ThermoFisher). For rRNA quantitation, 1 ml culture was collected and treated with RNAProtect (Qiagen), before total RNA was extracted with an RNeasv Mini Kit (Qiagen). DNase I treatment was performed with a TURBO DNA-free Kit (ThermoFisher). The extracted RNA was subjected to Agilent 2100 analysis, and the level of major rRNA (the sum of 16S+23S rRNA) as percentage of total RNA. The values were compared across each treatment group. All experiments were repeated three times.
# [5] = tested on: community-acquired MRSA strain USA300; assay: Microdilution assay (MIC) against community-acquired MRSA strain USA300; assay type: cell-based; conditions: Staphylococcus aureus, read-out: minimum inhibitory concentration (MIC)
# Experimental: (§4) The antimicrobial activity of the seven compounds against community-acquired MRSA strain USA300 were first screened. […] With a molecular weight of 266.3, MC4 has been reported to be of use only to form a metal complex dye in optical layers for optical data recording.^26 The antimicrobial activities of MC4 against a panel of representative strains of pathogens were then tested.
# (§5) Bacterial Strains and Chemicals. The following bacterial strains were used in this study for the microdilution assay: Enterococcus faecalis ATCC 29212, Klebsiella pneumonia ATCC 700603, Acinetobacter baumannii ATCC 19606, Pseudomonas aeruginosa PA01, Enterobacter cloacae ATCC 13047, E. coli ATCC 25922, Proteus vulgaris ATCC 6380, and S. aureus USA300, ATCC 25923, ATCC 29213, ST22, ST30, ST45, ST59, ST239, JE-2, BAA44. E. coli strain DH5a (Gibco BRL) was used in this study for cloning and BL21 (DE3) pLysS^23 was used for protein overproduction. 5-fluorouracil, rifampicin and other antibiotics used in the microdilution assay were purchased from SigmaAldrich. Compounds MC1-7 were purchased from MolPort.
# (§6) Antibacterial activity test. Microdilution assay was performed according to the Clinical & Laboratory Standards Institute recommendations.^42 Serial 2-fold dilutions of the tested compounds and antibiotic controls were made from 256 μg/ml to 0.5 μg/ml. DMSO was included as a negative control.
# NusB-NusE interaction = target: T3, NusB-NusE interaction (Bacillus subtilis, UniProt P54520); assay: ELISA-based inhibitory assay of NusB-NusE heterodimer formation; assay type: binding, B. subtilis; conditions: NusB coated plate, GST-tagged NusE probe; read-out: IC50, inhibition of the NusB-NusE interaction
# T3 construct: 6xHis (N); made in house; host or cells: E. coli BL21 (DE3) pLysS
# Experimental: Finally, to establish MC4's mode of action at the molecular level, an enzyme-linked immunosorbant assay-based inhibitory assay was performed to assess the in vitro inhibition of NusB-NusE heterodimer formation by MC4.^24 Purified NusB was used to coat the 96-well plate, and GST-tagged NusE was used as the probe. […] With the change in the phenyl acetylene group to phenols, the IC50 values of the corresponding MC4 analogues increased, while deletion of this terminal triple bond or replacing by methyl or chloride caused a reduced IC50. When p-nitrophenol was modified to o-nitrophenol, the IC50 values increased, probably because of the involvement of the phenol group in the binding interaction with NusB Y81 (Table 3).
# Protein overproduction and purification. B. subtilis NusB (wild type and mutant) and NusE-GST were overproduced from plasmids (Table 2) and purified using a similar approach to that described previously.^45 Purified proteins were dialyzed into 20 mM KH2PO4, 150 mM NaCl, 30% glycerol, pH 7.8 and stored at […].
# ELISA-based assays. These assays were performed as described previously,^41 except NusB was used to coat the NUNC MaxiSorp™ 96-well plates and GST-tagged NusE used as the probe.
# [6] = tested on: healthcare acquired MRSA ST239; assay: Microdilution assay (MIC) against healthcare acquired MRSA ST239; assay type: cell-based, Staphylococcus aureus
# Experimental: as §4, §5, §6
# S. aureus 25923 = assay: Microdilution assay (MIC) against control strain S. aureus 25923; assay type: cell-based; conditions: Staphylococcus aureus
# Experimental: as §4, §5, §6
# T3 sequence (P54520 whole entry): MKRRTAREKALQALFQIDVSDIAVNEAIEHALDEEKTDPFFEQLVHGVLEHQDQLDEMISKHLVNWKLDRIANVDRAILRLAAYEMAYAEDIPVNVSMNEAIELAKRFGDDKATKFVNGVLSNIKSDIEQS
# T2 sequence (P54520 whole entry): as above
smiles,measurement,setting,value
"O=c1[nH]cc(F)c(=O)[nH]1 [5-fluorouracil, reference compound]",CC50,[1],< 0.001 µM
same,CC50,"Cytotoxicity assay, A549",0.00562 ± 2e-06 µM
"C#Cc1cccc(/N=C/c2cc([N+](=O)[O-])ccc2O)c1 [MC4, (E)-2-[[(3-ethynylphenyl)imino]methyl]-4-nitrophenol]",Binding to NusB variants by ITC,[2],could not be detected
same,CC50,[1],695.1 ± 5.95 µM
same,Binding to NusE by ITC,NusE,could not be detected
same,CC50,"Cytotoxicity assay, A549",183 ± 7.71 µM
same,cytotoxicity against mammalian cell lines,A549 lung carcinoma,did not show significant cytotoxicity
same,N,[3],0.988±0.076
same,ΔH,[3],-7.141 ± 0.9398 kcal/mol
same,ΔS,[3],−1.81 cal/mol/deg
same,Kd,[3]; one-site binding mode,1.45 ± 0.55 µM
same,DNA level,[4],none of the treatment affected the DNA level
same,protein level,[4],significant reduction in the protein level
same,rRNA level (16S+23S),[4],significant reduction in the rRNA level
same,MIC,[5],64 µg/mL
same,IC50,NusB-NusE interaction,~34.7 µM and 34.7 µM
same,MIC,[6],16 µg/mL
same,MIC,S. aureus 25923,8 µg/mL
"O=[N+]([O-])c1cccc(/C=N/c2ccccc2)c1O [MC4-1, 2-nitro-6-[(E)-(phenylimino)methyl]phenol]",IC50,NusB-NusE interaction,14.4 ± 2.59 µM
"O=[N+]([O-])c1ccc(O)c(C=Nc2ccccc2)c1 [MC4-4, 4-nitro-2-[(phenylimino)methyl]phenol]",IC50,NusB-NusE interaction,147 ± 17.9 µM
"Cc1cccc(/N=C/c2cc([N+](=O)[O-])ccc2O)c1 [MC4-5, 2-{(E)-[(3-methylphenyl)imino]methyl}-4-nitrophenol]",IC50,NusB-NusE interaction,971 ± 11.6 µM
"O=[N+]([O-])c1ccc(O)c(/C=N/c2ccc(O)cc2)c1 [MC4-6, 2-{(E)-[(4-hydroxyphenyl)imino]methyl}-4-nitrophenol]",IC50,NusB-NusE interaction,0.00815 µM
"O=[N+]([O-])c1ccc(O)c(/C=N/c2ccc(Cl)cc2)c1 [MC4-7, 2-{(E)-[(4-chlorophenyl)imino]methyl}-4-nitrophenol]",IC50,NusB-NusE interaction,1639 ± 12.7 µM
"O=[N+]([O-])c1ccc(O)c(/C=N/c2cccc(O)c2)c1 [MC4-8, 2-{(E)[(3-hydroxyphenyl)imino]methyl}-4-nitrophenol]",IC50,NusB-NusE interaction,0.00692 µM
"Cc1onc(-c2ccccc2)c1C(=O)N[C@@H]1C(=O)N2[C@@H]1SC(C)(C)[C@@H]2C(=O)O [oxacillin, reference compound]",DNA level,[4],none of the treatment affected the DNA level
same,protein level,[4],slightly higher than those of control cells
same,rRNA level (16S+23S),[4],slightly higher than those of control cells
